The subject of test [1] is JIMT-1 human breast cancer cell line. The test is described as follows: Cell viability assay (SRB) in JIMT-1. The settings on record: 72 hours after treatment, read-out: JIMT1 IC50. The format is cell-based. The method, then:
(§1) Human colon carcinoma cell line HCT-116 was a kind gift from Igor Ronninson from University of South Caroli, Columbia, USA. Human breast cancer cell line, JIMT-1 was kindly provided by Ali Osmay Güre from Bilkent University, Ankara, Turkey. Cells were cultured in Dulbecco's modified Eagle's medium (Lonza, NJ, USA), supplemented with 10% fetal bovine serum (FBS, Lonza), 1% non-essential amino acid (NEAA), 2 mM L-glutamine (Sigma Aldrich, MO, USA) and 50 U/ml penicillin/streptomycin (P/S). HCT-116 cells were cultured in McCoy's 5A (modified) (Gibco) medium supplemented with FBS, NEAA, L-glutamine and P/S. All cell lines were tested regularly using MycoAlert Mycoplasma Detection Kit (Lonza). The cumulative length of the cells between thawing and use in the experiments was less than 20 passages.
(§2) Newly synthesized molecules were dissolved in 100% DMSO to yield a stock concentration of 10 mM. For cell viability assay, JIMT-1 (3×10^3 cells/well) and HCT-116 (4×10^3), cells were seeded into 96-well plates, and 24 hours after cell seeding inhibitor treatments were performed at different concentrations. Cell viability was measured 72 hours after treatment with Sulforhodamine B (SRB, Sigma Aldrich) assay as recommended by the manufacturer.

Test [2] has as its system HCT-116 human colon carcinoma cell line. Briefly: Cell viability assay (SRB) in HCT-116. It counts as cell-based. Conditions: 72 hours after treatment, read-out: HCT116 IC50. How it is done:
as §1, §2

Bounds are passed on as bounds.

Broadly, the IC50 is the concentration that inhibits the measured activity by half.

Turning to `COc1ccc(-c2cc(Nc3ccnc(N4CCOCC4)n3)[nH]n2)cc1` [Compound 5, N-(3-(4-methoxyphenyl)-1H-pyrazol-5-yl)-2-morpholinopyrimidin-4-amine], the IC50 in test [1] stood at 0.005 µM; in test [2], 0.047 µM.

As for `COc1ccc(-c2cc(Nc3ccnc(N4CCOCC4)n3)[nH]n2)c(Cl)c1` [Compound 27, N-(3-(2-chloro-4-methoxyphenyl)-1H-pyrazol-5-yl)-2-morpholinopyrimidin-4-amine], the IC50 in test [1] came out at 0.367 µM; in test [2], 0.321 µM.

As for `COc1ccc(-c2cc(Nc3ccnc(N4CCOCC4)n3)[nH]n2)c(F)c1` [Compound 56, N-(3-(2-fluoro-4-methoxyphenyl)-1H-pyrazol-5-yl)-2-morpholinopyrimidin-4-amine], the values for the IC50 in test [1] and in test [2] were 0.023 µM and 0.036 µM, respectively.

`COc1ccc(-c2cc(Nc3ccnc(N4C[C@@H](C)O[C@@H](C)C4)n3)[nH]n2)cc1` [Compound 59b, 2-((2R,6S)-2,6-dimethylmorpholino)-N-(3-(4-methoxyphenyl)-1H-pyrazol-5-yl)pyrimidin-4-amine]: the IC50 stood at 0.017 µM in test [1] and 0.003 µM in test [2].

Regarding `COc1ccc(-c2cc(Nc3ccnc(N4CCC(C)CC4)n3)[nH]n2)cc1` [Compound 69, N-(3-(4-methoxyphenyl)-1H-pyrazol-5-yl)-2-(4-methylpiperidin-1-yl)pyrimidin-4-amine], the figures for the IC50 in test [1] and in test [2] were 0.025 µM and 0.005 µM, respectively.

For the molecule `COc1ccc(-c2cc(Nc3ccnc(N4CCC(C(F)(F)F)CC4)n3)[nH]n2)cc1` [Compound 70, N-(3-(4-methoxyphenyl)-1H-pyrazol-5-yl)-2-(4-(trifluoromethyl)piperidin-1-yl)pyrimidin-4-amine], the IC50 in test [1] was determined as 0.026 µM; in test [2] it was 0.028 µM.

As for `COc1ccc(-c2cc(Nc3ccnc(N4C[C@@H](C)O[C@@H](C)C4)n3)[nH]n2)cc1F` [Compound 86b, 2-((2R,6S)-2,6-dimethylmorpholino)-N-(3-(3-fluoro-4-methoxyphenyl)-1H-pyrazol-5-yl)pyrimidin-4-amine], the IC50 in test [1] was 0.007 µM; in test [2], 0.005 µM.

Consider `COc1ccc(-c2cc(Nc3ccnc(N4CCC(C)CC4)n3)[nH]n2)cc1F` [Compound 87, N-(3-(3-fluoro-4-methoxyphenyl)-1H-pyrazol-5-yl)-2-(4-methylpiperidin-1-yl)pyrimidin-4-amine], for which the IC50 in test [1] and in test [2] was 0.025 µM each time.

For the molecule `COc1ccc(-c2cc(Nc3ccnc(N4CCC(C(F)(F)F)CC4)n3)[nH]n2)cc1F` [Compound 89, N-(3-(3-fluoro-4-methoxyphenyl)-1H-pyrazol-5-yl)-2-(4-(trifluoromethyl)piperidin-1-yl)pyrimidin-4-amine], the IC50 was 0.031 µM in test [1] and 0.009 µM in test [2].

`COc1ccc(-c2cc(Nc3ccnc(N4CC(C)(C)OC(C)(C)C4)n3)[nH]n2)cc1F` [Compound 90, N-(3-(3-fluoro-4-methoxyphenyl)-1H-pyrazol-5-yl)-2-(2,2,6,6-tetramethylmorpholino)pyrimidin-4-amine]: the IC50 in test [1] turned out to be 0.365 µM; in test [2], 0.733 µM.

`COc1ccc(-c2cc(Nc3ccnc(N4CCOC(C)(C)C4)n3)[nH]n2)cc1F` [Compound 92, 2-(2,2-dimethylmorpholino)-N-(3-(3-fluoro-4-methoxyphenyl)-1H-pyrazol-5-yl)pyrimidin-4-amine]: the results for the IC50 in test [1] and in test [2] were 0.245 µM and 0.488 µM, respectively.

Consider `COc1ccc(-c2cc(Nc3ccnc(N4CCOC(C)C4)n3)[nH]n2)cc1F` (centres unmarked) [Compound 94, N-(3-(3-fluoro-4-methoxyphenyl)-1H-pyrazol-5-yl)-2-(2-methylmorpholino)pyrimidin-4-amine], for which the IC50 was determined as 0.029 µM in test [1] and 0.046 µM in test [2].

Take `COc1ccc(-c2cc(Nc3ccnc(N4CCOC(C(F)(F)F)C4)n3)[nH]n2)cc1F` (centres unmarked) [Compound 96, N-(3-(3-fluoro-4-methoxyphenyl)-1H-pyrazol-5-yl)-2-(2-(trifluoromethyl)morpholino)pyrimidin-4-amine]: the IC50 in test [1] was determined as 0.047 µM; in test [2], 0.089 µM.

Take `COc1ccc(-c2cc(Nc3ccnc(N4C[C@@H](C)O[C@H](C)C4)n3)[nH]n2)cc1F` [Compound 106, 2-((2R,6R)-2,6-dimethylmorpholino)-N-(3-(3-fluoro-4-methoxyphenyl)-1H-pyrazol-5-yl)pyrimidin-4-amine]: the IC50 in test [1] turned out to be 0.062 µM; in test [2], 0.091 µM.

With `COc1ccc(-c2cc(Nc3ccnc(N4CCC(C)CC4)n3)[nH]n2)c(F)c1` [Compound 130, N-(3-(2-fluoro-4-methoxyphenyl)-1H-pyrazol-5-yl)-2-(4-methylpiperidin-1-yl)pyrimidin-4-amine], the IC50 in test [1] is 0.018 µM; in test [2], 0.007 µM.

In the case of `COc1ccc(-c2cc(Nc3ccnc(N4CCC(F)CC4)n3)[nH]n2)c(F)c1` [Compound 131, N-(3-(2-fluoro-4-methoxyphenyl)-1H-pyrazol-5-yl)-2-(4-fluoropiperidin-1-yl)pyrimidin-4-amine], the IC50 in test [1] came to 0.053 µM; in test [2] it was 0.047 µM.

On to `COc1ccc(-c2cc(Nc3ccnc(N4CCC(C(F)(F)F)CC4)n3)[nH]n2)c(F)c1` [Compound 132, N-(3-(2-fluoro-4-methoxyphenyl)-1H-pyrazol-5-yl)-2-(4-(trifluoromethyl)piperidin-1-yl)pyrimidin-4-amine], for which the results for the IC50 in test [1] and in test [2] were 0.018 µM and 0.038 µM, respectively.

On to `COc1ccc(-c2cc(Nc3ccnc(N4CC(C)(C)OC(C)(C)C4)n3)[nH]n2)c(F)c1` [Compound 133, N-(3-(2-fluoro-4-methoxyphenyl)-1H-pyrazol-5-yl)-2-(2,2,6,6-tetramethylmorpholino)pyrimidin-4-amine], for which the IC50 turned out to be 0.606 µM in test [1] and 6.56 µM in test [2].

Consider `COc1ccc(-c2cc(Nc3ccnc(N4CCOC(C)(C)C4)n3)[nH]n2)c(F)c1` [Compound 135, 2-(2,2-dimethylmorpholino)-N-(3-(2-fluoro-4-methoxyphenyl)-1H-pyrazol-5-yl)pyrimidin-4-amine], for which the IC50 amounted to 0.23 µM in test [1] and 0.88 µM in test [2].

With `COc1ccc(-c2cc(Nc3ccnc(N4C(C)COCC4C)n3)[nH]n2)c(F)c1` (centres unmarked) [Compound 136, 2-(3,5-dimethylmorpholino)-N-(3-(2-fluoro-4-methoxyphenyl)-1H-pyrazol-5-yl)pyrimidin-4-amine], the IC50 in test [1] was determined as 0.895 µM; in test [2] it was 1.3 µM.

Take `COc1ccc(-c2csc(Nc3ccnc(N4CCOCC4)n3)n2)cc1` [Compound 174, 4-(4-methoxyphenyl)-N-(2-morpholinopyrimidin-4-yl)thiazol-2-amine]: in test [1], the IC50 is at least 10 µM.

As to `COc1ccc(-c2coc(Nc3ccnc(N4CCOCC4)n3)n2)cc1` [Compound 177, 4-(4-methoxyphenyl)-N-(2-morpholinopyrimidin-4-yl)oxazol-2-amine], the IC50 in test [1] was at least 10 µM.

As for `C[C@@H]1CN(c2nccc(Nc3cc(-c4ccc(Cl)cc4)n[nH]3)n2)C[C@H](C)O1` [Compound 197, N-(3-(4-chlorophenyl)-1H-pyrazol-5-yl)-2-((2R,6S)-2,6-dimethylmorpholino)pyrimidin-4-amine], the IC50 in test [2] came out at 0.255 µM.

On to `Cc1ccc(-c2cc(Nc3ccnc(N4C[C@@H](C)O[C@@H](C)C4)n3)[nH]n2)cc1` [Compound 198, 2-((2R,6S)-2,6-dimethylmorpholino)-N-(3-(p-tolyl)-1H-pyrazol-5-yl)pyrimidin-4-amine], for which the IC50 in test [2] came out at 0.08 µM.

As for `CCc1ccc(-c2cc(Nc3ccnc(N4C[C@@H](C)O[C@@H](C)C4)n3)[nH]n2)cc1` [Compound 199, 2-((2R,6S)-2,6-dimethylmorpholino)-N-(3-(4-ethylphenyl)-1H-pyrazol-5-yl)pyrimidin-4-amine], the IC50 in test [2] was found to be 0.09 µM.

Regarding `C[C@@H]1CN(c2nccc(Nc3cc(-c4ccc(S(C)(=O)=O)cc4)n[nH]3)n2)C[C@H](C)O1` [Compound 206, 2-((2R,6S)-2,6-dimethylmorpholino)-N-(3-(4-(methylsulfonyl)phenyl)-1H-pyrazol-5-yl)pyrimidin-4-amine], the IC50 in test [2] is 4.64 µM.

Turning to `C[C@@H]1CN(c2nccc(Nc3cc(-c4ccc(N5CCCC5)cc4)n[nH]3)n2)C[C@H](C)O1` [Compound 209, 2-((2R,6S)-2,6-dimethylmorpholino)-N-(3-(4-(pyrrolidin-1-yl)phenyl)-1H-pyrazol-5-yl)pyrimidin-4-amine], the IC50 in test [2] was 0.108 µM.

As for `COc1ccc(-c2cc(Nc3nc(N4C[C@@H](C)O[C@@H](C)C4)ncc3C)[nH]n2)c(F)c1` [Compound 283, 2-((2R,6S)-2,6-dimethylmorpholino)-N-(3-(2-fluoro-4-methoxyphenyl)-1H-pyrazol-5-yl)-5-methylpyrimidin-4-amine], in test [1], the IC50 was 0.212 µM.

Turning to `COc1ccc(-c2cc(Nc3cccc(N4CCOCC4)n3)[nH]n2)c(F)c1` [Compound 298, N-(3-(2-fluoro-4-methoxyphenyl)-1H-pyrazol-5-yl)-6-morpholinopyridin-2-amine], in test [1], the IC50 amounted to 0.034 µM.

Consider `C[C@@H]1CN(c2cc(Nc3cc(-c4ccc(OC(F)F)cc4)n[nH]3)ccn2)C[C@H](C)O1` [Compound 308, N-(3-(4-(difluoromethoxy)phenyl)-1H-pyrazol-5-yl)-2-((2R,6S)-2,6-dimethylmorpholino)pyridin-4-amine], for which the IC50 in test [1] was determined as 0.053 µM.

(Values after patent US20240374590A1, “COMPOSITIONS AND METHODS FOR TREATING CANCER” (A2A PHARMACEUTICALS, INC., priority 2021, published 2024).)
